Measured values: ChEMBL document CHEMBL4145553, “Design, synthesis, and biological evaluation of novel amide and hydrazide based thioether analogs targeting Histone deacteylase (HDAC) enzymes” (Eur J Med Chem, 2018)

Columns and labels:
Type in all cases: functional
[1] = system: HCT-116; assay: Growth inhibition of human HCT116 cells incubated for 48 hrs by sulforhodamine B assay; settings: HCT-116, 48 h
[2] = system: RPMI-8226; assay: Growth inhibition of human RPMI8226 cells assessed as cell growth at 10^-6 M incubated for 48 hrs by sulforhodamine B assay relative to control; settings: RPMI-8226, 48 h, read-out: Activity
[3] = system: MDA-MB-435; assay: Growth inhibition of human MDA-MB-435 cells assessed as cell growth at 10^-6 M incubated for 48 hrs by sulforhodamine B assay relative to control; settings: MDA-MB-435, 48 h, read-out: Activity
[4] = system: MCF7; assay: Growth inhibition of human MCF7 cells assessed as cell growth at 10^-8 M incubated for 48 hrs by sulforhodamine B assay relative to control; settings: MCF7, 48 h, read-out: Activity
[5] = system: SR; assay: Growth inhibition of human SR cells assessed as cell growth at 10^-6 M incubated for 48 hrs by sulforhodamine B assay relative to control; settings: read-out: Activity
[6] = system: NCI-H322M; assay: Growth inhibition of human NCI-H322M cells assessed as cell growth at 10^-4 M incubated for 48 hrs by sulforhodamine B assay relative to control; settings: read-out: Activity
[7] = system: OVCAR-3; assay: Growth inhibition of human OVCAR3 cells assessed as cell growth at 10^-6 M incubated for 48 hrs by sulforhodamine B assay relative to control; settings: OVCAR-3, 48 h, read-out: Activity
[8] = system: OVCAR-5; assay: Growth inhibition of human OVCAR5 cells assessed as cell growth at 10^-6 M incubated for 48 hrs by sulforhodamine B assay relative to control; settings: OVCAR-5, 48 h, read-out: Activity
[9] = system: SN12C; assay: Growth inhibition of human SN12C cells incubated for 48 hrs by sulforhodamine B assay
[10] = system: Hs-578T; assay: Growth inhibition of human Hs 578T cells incubated for 48 hrs by sulforhodamine B assay
[11] = system: HT-29; assay: Growth inhibition of human HT-29 cells assessed as cell growth at 10^-7 M incubated for 48 hrs by sulforhodamine B assay relative to control; settings: HT-29, 48 h, read-out: Activity
[12] = system: M14; assay: Growth inhibition of human M14 cells assessed as cell growth at 10^-7 M incubated for 48 hrs by sulforhodamine B assay relative to control; settings: M14, 48 h, read-out: Activity
[13] = system: A549; assay: Growth inhibition of human A549/ATCC cells assessed as cell growth at 10^-5 M incubated for 48 hrs by sulforhodamine B assay relative to control; settings: A549, 48 h, read-out: Activity
[14] = system: SNB-19; assay: Growth inhibition of human SNB19 cells assessed as cell growth at 10^-5 M incubated for 48 hrs by sulforhodamine B assay relative to control; settings: SNB-19, 48 h, read-out: Activity
[15] = system: NCI-H322M; assay: Growth inhibition of human NCI-H322M cells assessed as cell growth at 10^-6 M incubated for 48 hrs by sulforhodamine B assay relative to control; settings: read-out: Activity
[16] = system: MOLT-4; assay: Growth inhibition of human MOLT4 cells assessed as cell growth at 10^-8 M incubated for 48 hrs by sulforhodamine B assay relative to control; settings: MOLT-4, 48 h, read-out: Activity
[17] = system: MDA-MB-231; assay: Growth inhibition of human MDA-MB-231 cells assessed as cell growth at 10^-7 M incubated for 48 hrs by sulforhodamine B assay relative to control; settings: MDA-MB-231, 48 h, read-out: Activity
[18] = system: NCI-H226; assay: Growth inhibition of human NCI-H226 cells assessed as cell growth at 10^-6 M incubated for 48 hrs by sulforhodamine B assay relative to control; settings: NCI-H226, 48 h, read-out: Activity
[19] = system: EKVX; assay: Growth inhibition of human EKVX cells assessed as cell growth at 10^-5 M incubated for 48 hrs by sulforhodamine B assay relative to control; settings: read-out: Activity
[20] = system: SK-MEL-5; assay: Growth inhibition of human SK-MEL-5 cells assessed as cell growth at 10^-8 M incubated for 48 hrs by sulforhodamine B assay relative to control; settings: SK-MEL-5, 48 h, read-out: Activity
[21] = system: MDA-MB-231; assay: Growth inhibition of human MDA-MB-231 cells assessed as cell growth at 10^-8 M incubated for 48 hrs by sulforhodamine B assay relative to control; settings: MDA-MB-231, 48 h, read-out: Activity
[22] = system: NCI/ADR-RES; assay: Growth inhibition of human NCI/ADR-RES cells assessed as cell growth at 10^-6 M incubated for 48 hrs by sulforhodamine B assay relative to control; settings: read-out: Activity
[23] = system: NCI-H226; assay: Growth inhibition of human NCI-H226 cells assessed as cell growth at 10^-7 M incubated for 48 hrs by sulforhodamine B assay relative to control; settings: NCI-H226, 48 h, read-out: Activity
[24] = system: KM12; assay: Growth inhibition of human KM12 cells assessed as cell growth at 10^-4 M incubated for 48 hrs by sulforhodamine B assay relative to control; settings: KM12, 48 h, read-out: Activity
[25] = system: HCC 2998; assay: Growth inhibition of human HCC2998 cells assessed as cell growth at 10^-4 M incubated for 48 hrs by sulforhodamine B assay relative to control; settings: HCC 2998, 48 h, read-out: Activity
[26] = system: BT-549; assay: Growth inhibition of human BT549 cells assessed as cell growth at 10^-6 M incubated for 48 hrs by sulforhodamine B assay relative to control; settings: BT-549, 48 h, read-out: Activity
[27] = system: BT-549; assay: Growth inhibition of human BT549 cells assessed as cell growth at 10^-7 M incubated for 48 hrs by sulforhodamine B assay relative to control; settings: BT-549, 48 h, read-out: Activity
[28] = system: Hs-578T; assay: Growth inhibition of human Hs 578T cells assessed as cell growth at 10^-6 M incubated for 48 hrs by sulforhodamine B assay relative to control; settings: read-out: Activity
[29] = system: SNB-19; assay: Growth inhibition of human SNB19 cells assessed as cell growth at 10^-8 M incubated for 48 hrs by sulforhodamine B assay relative to control; settings: SNB-19, 48 h, read-out: Activity
[30] = system: HL-60; assay: Cell cycle arrest in human HL60 cells assessed as accumulation at S-phase by propidium iodide staining based flow cytometry (reference value: 24.9%)
[31] = system: HCT-116; assay: Growth inhibition of human HCT116 cells assessed as cell growth at 10^-4 M incubated for 48 hrs by sulforhodamine B assay relative to control; settings: HCT-116, 48 h, read-out: Activity
[32] = system: 786-0; assay: Growth inhibition of human 786-0 cells incubated for 48 hrs by sulforhodamine B assay; settings: 786-0, 48 h
[33] = read-out: LC50 (the source's name)
[34] = read-out: pLC50 (the source's name) (converted)

Compound CCS/C(Nc1ccccc1)=C(\C#N)C(=O)Nc1ccc(OC)cc1 has a GI50 ([1]; read-out: GI50) of 1.95 µM, a CC50 [1, 33] of over 100 µM and a TGI ([1]; read-out: TGI) of 16.4 µM. The GI50 ([1]; read-out: pGI50 (converted)) was 1.95 µM, the CC50 [1, 34] was over 100 µM and the TGI ([1]; read-out: pTGI (converted)) was 16.6 µM. It also gave a growth at 1 µM [2] of 79%, a growth at 1 µM [3] of 19% and a growth at 0.01 µM [4] of 98%. The growth at 1 µM [5] was 57%, the growth at 100 µM [6] was 37% and the growth at 1 µM [7] was 90%. For the same compound, the growth at 1 µM [8] was 98%, the GI50 ([9]; read-out: GI50) was 5.91 µM and the CC50 [9, 33] was over 100 µM. The TGI ([9]; read-out: TGI) was over 100 µM, the GI50 ([9]; read-out: pGI50 (converted)) was 5.89 µM and the CC50 [9, 34] was over 100 µM. The TGI ([9]; read-out: pTGI) was over 100 µM, the GI50 ([10]; read-out: GI50) was 4.07 µM and the CC50 [10, 33] was over 100 µM. The TGI ([10]; read-out: TGI) was over 100 µM, the GI50 ([10]; read-out: pGI50 (converted)) was 4.07 µM and the CC50 [10, 34] was over 100 µM. It also gave a TGI ([10]; read-out: pTGI (converted)) of over 100 µM, a growth at 0.1 µM [11] of 105% and a growth at 0.1 µM [12] of 93%. The growth at 10 µM [13] was 35%, the growth at 10 µM [14] was 22% and the growth at 1 µM [15] was 89%. The growth at 0.01 µM [16] was 97%, the growth at 0.1 µM [17] was 94% and the growth at 1 µM [18] was 88%. The growth at 10 µM [19] was 31%, the growth at 0.01 µM [20] was 98% and the growth at 0.01 µM [21] was 104%. For the same compound, the growth at 1 µM [22] was 73%, the growth at 0.1 µM [23] was 86% and the growth at 100 µM [24] was 7%. The growth at 100 µM [25] was 7%, the growth at 1 µM [26] was 74% and the growth at 0.1 µM [27] was 89%. The growth at 1 µM [28] was 84%, the growth at 0.01 µM [29] was 98% and the Activity [30] was 15.51%. It also gave a growth at 100 µM [31] of -11%, a GI50 ([32]; read-out: GI50) of 4.14 µM and a CC50 [32, 33] of over 100 µM. For the same compound, the TGI ([32]; read-out: TGI) was over 100 µM, the GI50 ([32]; read-out: pGI50 (converted)) was 4.17 µM and the CC50 [32, 34] was over 100 µM. The TGI ([32]; read-out: pTGI) was over 100 µM.

In the case of CCS/C(Nc1ccccc1)=C(\C#N)C(=O)N/N=C\c1ccc(Cl)cc1Cl, the GI50 ([1]; read-out: GI50) is reported as 2.99 µM, the CC50 [1, 33] is reported as over 100 µM and the TGI ([1]; read-out: TGI) is reported as over 100 µM. For the same compound, the GI50 ([1]; read-out: pGI50 (converted)) was 3.02 µM, the CC50 [1, 34] was over 100 µM and the TGI ([1]; read-out: pTGI (converted)) was over 100 µM. For the same compound, the growth at 1 µM [2] was 92%, the growth at 1 µM [3] was 28% and the growth at 0.01 µM [4] was 97%. The growth at 1 µM [5] was 76%, the growth at 100 µM [6] was 32% and the growth at 1 µM [7] was 90%. It also gave a growth at 1 µM [8] of 101%, a GI50 ([9]; read-out: GI50) of 6.92 µM and a CC50 [9, 33] of over 100 µM. It also gave a TGI ([9]; read-out: TGI) of over 100 µM, a GI50 ([9]; read-out: pGI50 (converted)) of 6.92 µM and a CC50 [9, 34] of over 100 µM. For the same compound, the TGI ([9]; read-out: pTGI) was over 100 µM, the GI50 ([10]; read-out: GI50) was 2.74 µM and the CC50 [10, 33] was over 100 µM. For the same compound, the TGI ([10]; read-out: TGI) was 98.7 µM, the GI50 ([10]; read-out: pGI50 (converted)) was 2.75 µM and the CC50 [10, 34] was over 100 µM. For the same compound, the TGI ([10]; read-out: pTGI (converted)) was 97.7 µM, the growth at 0.1 µM [11] was 101% and the growth at 0.1 µM [12] was 93%. The growth at 10 µM [13] was 29%, the growth at 10 µM [14] was 28% and the growth at 1 µM [15] was 89%. For the same compound, the growth at 0.01 µM [16] was 95%, the growth at 0.1 µM [17] was 97% and the growth at 1 µM [18] was 85%. For the same compound, the growth at 10 µM [19] was 35%, the growth at 0.01 µM [20] was 101% and the growth at 0.01 µM [21] was 101%. The growth at 1 µM [22] was 87%, the growth at 0.1 µM [23] was 82% and the growth at 100 µM [24] was 22%. For the same compound, the growth at 100 µM [25] was 35%, the growth at 1 µM [26] was 76% and the growth at 0.1 µM [27] was 87%. It also gave a growth at 1 µM [28] of 75%, a growth at 0.01 µM [29] of 97% and an Activity [30] of 13.18%. The growth at 100 µM [31] was 3%, the GI50 ([32]; read-out: GI50) was 3.5 µM and the CC50 [32, 33] was over 100 µM. For the same compound, the TGI ([32]; read-out: TGI) was over 100 µM, the GI50 ([32]; read-out: pGI50 (converted)) was 3.47 µM and the CC50 [32, 34] was over 100 µM. For the same compound, the TGI ([32]; read-out: pTGI) was over 100 µM.
